# Data published in publication PMC9655037, “Alternation of Organ-Specific Exposure in LPS-Induced Pneumonia Mice after the Inhalation of Tetrandrine Is Governed by Metabolizing Enzyme Suppression and Lysosomal Trapping” (International Journal of Molecular Sciences, 2022).
# Where “and” joins values, the source holds several entries; their conditions need not be identical. Equal entries are not always repeated.
# Experiment: Tissue distribution of TET after a single i.t. administration in normal and LPS-treated mice
# Conditions: for AUC(0-inf) / Cmax / MRT / Tmax / half-life / Kp / AUC(0-t): BALB/c, mouse; for AUC(0-inf) / Cmax / MRT / Tmax / half-life / AUC(0-t): inhaled or intranasal; for AUC(0-inf) / Cmax / MRT / Tmax / half-life / Kp / AUC(0-t) / Kp (AUC in tissue divided by AUC in blood): 15 mg/kg, 15 mg/kg i.t.; for Kp: other: intratracheal (i.t.), Kp (AUC in tissue divided by AUC in blood)
# Description: The different tissue distribution characteristics of TET in normal and pneumonia model mice via i.t. delivery were investigated. Thirty BALB/c mice were randomly divided into ten groups (n = 3 for each group). Five groups of mice were intratracheally injected with 15 mg/kg TET (dissolved in 22.5 mg/mL aspartic acid solution) as control groups, and the other five groups received i.t. administration of 15 mg/kg TET 6 h after i.t. injection of 50 μL LPS (5 mg/mL) as model groups. One control group and one model group were sacrificed simultaneously at the set time points of 2, 4, 8, 24, and 144 h after the administration of TET. After a cardiac puncture to obtain blood samples, tissue samples including heart, liver, spleen, lung, kidney, stomach, intestine, and brain were immediately harvested and all the tissues were thoroughly rinsed in ice physiological saline. All the tissue samples were weighed and stored with blood samples at −40 °C for LC-MS/MS analysis.
# Pharmacokinetic parameters including t1/2, AUC(0-t), AUC(0-∞), and MRT were calculated using WinNonlin 7.0 (Pharsight, CA) by the non-compartmental model. Initial plasma concentration post i.v. (C0-i.v.) was extrapolated from the first three points of the logarithmic plasma concentration. The area under the blood concentration–time curve from t = 0 to infinity (AUCinf) was estimated using the linear trapezoidal rule. Blood clearance (CL) was calculated as the i.v. dose divided by AUCinf. Apparent steady-state distribution volume (Vss) was determined by the clearance multiplied by mean residence time. The distribution volume in the elimination phase (Vz) was determined by the clearance divided by the first-order rate constant of the terminal elimination phase (λz). The tissue partition ratio (Kp) of each tissue was calculated as Equation (1). (1) Kp=AUC(0−∞,tissue)/AUC(0−∞,plasma)
compound,measurement,setting,value
"COc1ccc2cc1Oc1ccc(cc1)C[C@H]1c3cc(c(OC)cc3CCN1C)Oc1c(OC)c(OC)cc3c1[C@H](C2)N(C)CC3 [TET, Tetrandrine]",AUC(0-inf),"kidney, normal mice",8160 ± 422 µg·h/mL
same,Cmax,"kidney, LPS-treated mice",112 ± 11.5 µg/mL
same,Cmax,"kidney, normal mice",107 ± 16.6 µg/mL
same,MRT,"kidney, LPS-treated mice",101 ± 30 h
same,MRT,"kidney, normal mice",80.1 ± 16.6 h
same,Tmax,"kidney, LPS-treated mice",5.33 ± 2.31 h
same,Tmax,"kidney, normal mice",3.33 ± 1.15 h
same,half-life,"kidney, t1/2, LPS-treated mice",77.8 ± 18.1 h
same,half-life,"kidney, t1/2, normal mice",63.4 ± 8.09 h
same,Kp,"kidney, LPS-treated mice, kidney",36.2 ± 3.83
same,Kp,"kidney, normal mice, kidney",37.5 ± 5.7
same,AUC(0-inf),"liver, LPS-treated mice",7430 ± 632 µg·h/mL
same,AUC(0-inf),"liver, normal mice",5480 ± 237 µg·h/mL
same,Cmax,"liver, LPS-treated mice",76.3 ± 7.02 µg/mL
same,Cmax,"liver, normal mice",83.3 ± 9.29 µg/mL
same,MRT,"liver, LPS-treated mice",82.1 ± 15.6 h
same,MRT,"liver, normal mice",53.9 ± 8.29 h
same,Tmax,"liver, LPS-treated mice",3.33 ± 1.15 h
same,Tmax,"liver, normal mice",4 h
same,half-life,"liver, t1/2, LPS-treated mice",69.3 ± 14.8 h
same,half-life,"liver, t1/2, normal mice",47.5 ± 5.47 h
same,Kp,"liver, LPS-treated mice, liver",27 ± 1.72
same,Kp,"liver, normal mice, liver",28 ± 3.49
same,AUC(0-t),"lung, LPS-treated mice",10000 µg·h/mL
same,AUC(0-inf),"lung, normal mice",5300 ± 721 µg·h/mL
same,Cmax,"lung, LPS-treated mice",≥ 96.2 µg/mL
same,Cmax,"lung, normal mice",60.3 ± 3.21 µg/mL
same,MRT,"lung, normal mice",78.3 ± 24.5 h
same,Tmax,"lung, LPS-treated mice",≥ 144 h
same,Tmax,"lung, normal mice",13.3 ± 9.24 h
same,half-life,"lung, t1/2, normal mice",65.1 ± 18.3 h
same,Kp,"lung, LPS-treated mice, lung",45.8 ± 6.49
same,Kp,"lung, normal mice, lung",24.7 ± 6.06
same,Kp,"muscle / blood, normal mice, muscle",2
same,AUC(0-inf),"muscle, LPS-treated mice",674 ± 240 µg·h/mL
same,AUC(0-inf),"muscle, normal mice",410 ± 80.1 µg·h/mL
same,Cmax,"muscle, LPS-treated mice",7.51 ± 2.11 µg/mL
same,Cmax,"muscle, normal mice",6.12 ± 0.44 µg/mL
same,MRT,"muscle, LPS-treated mice",101 ± 44.4 h
same,MRT,"muscle, normal mice",57.7 ± 7.81 h
same,Tmax,"muscle, LPS-treated mice",6.67 ± 2.31 h
same,Tmax,"muscle, normal mice",4 ± 3.16 h
same,half-life,"muscle, t1/2, LPS-treated mice",78.8 ± 31.3 h
same,half-life,"muscle, t1/2, normal mice",49.2 ± 4.06 h
same,Kp,"muscle, LPS-treated mice, muscle",2.2 ± 0.31
same,AUC(0-inf),"spleen, LPS-treated mice",16000 µg·h/mL
same,AUC(0-inf),"spleen, normal mice",11300 µg·h/mL
same,Cmax,"spleen, LPS-treated mice",89.7 ± 10.7 µg/mL
same,Cmax,"spleen, normal mice",89.7 ± 7.09 µg/mL
same,MRT,"spleen, LPS-treated mice",157 ± 29.5 h
same,MRT,"spleen, normal mice",112 ± 34.7 h
same,Tmax,"spleen, LPS-treated mice",17.3 ± 11.5 h
same,Tmax,"spleen, normal mice",12 ± 10.6 h
same,half-life,"spleen, t1/2, LPS-treated mice",111 ± 18.3 h
same,half-life,"spleen, t1/2, normal mice",83.8 ± 22.7 h
same,Kp,"spleen, LPS-treated mice, spleen",43.3 ± 6.88
same,Kp,"spleen, normal mice, spleen",45.7 ± 6.62
same,Kp,"stomach / blood, LPS-treated mice, stomach",6.1
same,Kp,"stomach / blood, normal mice, stomach",5.3
same,AUC(0-t),"stomach, LPS-treated mice",1340 ± 192 µg·h/mL
same,AUC(0-inf),"stomach, LPS-treated mice",1640 ± 323 µg·h/mL
same,AUC(0-inf),"stomach, normal mice",1120 ± 207 µg·h/mL
same,Cmax,"stomach, LPS-treated mice",27.2 ± 9.32 µg/mL
same,Cmax,"stomach, normal mice",22.3 ± 12.4 µg/mL
same,MRT,"stomach, LPS-treated mice",73.3 ± 17.7 h
same,MRT,"stomach, normal mice",70 ± 14 h
same,Tmax,"stomach, LPS-treated mice",3.33 ± 1.15 h
same,Tmax,"stomach, normal mice",4.67 ± 3.06 h
same,half-life,"stomach, t1/2, LPS-treated mice",61.4 ± 13 h
same,half-life,"stomach, t1/2, normal mice",64 ± 16.5 h
same,Kp (AUC in tissue divided by AUC in blood),"LPS-treated mice, adipose",2.57 ± 0.62
same,Kp (AUC in tissue divided by AUC in blood),"LPS-treated mice, brain",0.59 ± 0.17
same,Kp (AUC in tissue divided by AUC in blood),"LPS-treated mice, heart",4.27 ± 1.59
same,Kp (AUC in tissue divided by AUC in blood),"LPS-treated mice, stomach",6.13 ± 0.87
same,"lung AUC ratio, acutely inflamed vs normal mice",TET inhalation (i.t.) administration,2.32
same,"increase in systemic blood exposure (blood AUC ratio), LPS group vs normal/saline group",i.t. route,~ 1.25 fold and 1.25 fold
same,Kp (AUC in tissue divided by AUC in blood),"normal mice, adipose",2.39 ± 0.40
same,Kp (AUC in tissue divided by AUC in blood),"normal mice, brain",0.97 ± 0.39
same,Kp (AUC in tissue divided by AUC in blood),"normal mice, heart",5.05 ± 0.38
same,Kp (AUC in tissue divided by AUC in blood),"normal mice, intestine",8.35 ± 0.67
same,Kp (AUC in tissue divided by AUC in blood),"normal mice, muscle",2.04 ± 0.38
same,Kp (AUC in tissue divided by AUC in blood),"normal mice, stomach",5.29 ± 0.66
